The results in this text go back to ChEMBL document CHEMBL1122093, “Preparation of the alpha and beta anomers of 9-(3,5-dideoxy-D-glycero-pent-4-enofuranosyl)adenine and their activity with leukemia L1210 cells in vitro” (1982).

For orientation: inhibition means the drop in the measured response relative to a control, in per cent. High values mean a response far below the control, low ones a response near the control.

The structures appear in SMILES notation.

Experiment [1] concerns L1210. The experiment in a line: In vitro for the inhibitory activity against L1210 leukemia cells at a concentration 3.4x10 E -4 M. Type of experiment: functional. Conditions: Mus musculus.
Experiment [2] relates to L1210. The experiment in a line: In vitro for the inhibitory activity against L1210 leukemia cells at a concentration 3.2x10 E -4 M. Type of experiment: functional. Conditions: Mus musculus.

The compound `C=C1C[C@@H](O)[C@@H](n2cnc3c(N)ncnc32)O1` displayed an inhibition at 340 µM in the experiment with L1210 [1] of 50%.

In the experiment on L1210 [2], `C=C1C[C@@H](O)[C@H](n2cnc3c(N)ncnc32)O1` showed an inhibition at 320 µM of 50%.
